Measurements taken from patent US20140066385A1, “METHOD FOR TREATING CANCER BY COMBINED USE OF DRUGS” (Astellas Pharma Inc., priority 2011, published 2014).

Experiments:
[1] = tested on: human hormone-resistant prostatic cancer (PC-3); assay: Example 9: FK330 with paclitaxel in PC-3 tumor-bearing mice; type: in vivo, nude mice; conditions: FK330 100 mg/kg bid p.o. + paclitaxel 10 mg/kg/day i.v. multicycle
Method: The dose of FK330 is expressed in terms of the weight of a simple substance (non-hydrate). Paclitaxel was purchased from LC Laboratories, Inc. (Woburn, Mass., USA), and was used as paclitaxel.
FK330 was suspended (20 mg/mL) in a 0.5% aqueous methyl cellulose solution (0.5% MC), and was orally administered. Paclitaxel was prepared into a stock solution at 10 mg/mL with an ethanol/cremophor solution (mixed at 1:1), and then the stock solution was diluted to 1 mg/mL with physiological saline for injection (Otsuka Pharmaceutical Group) immediately before administration and was intravenously administered through the tail vein.
Human hormone-resistant prostatic cancer-derived PC-3 (CRL-1435) was obtained from American Type Culture Collection (VA, USA). […]
The body weight and the tumor diameter, determined by using a digital caliper, were measured twice a week. The tumor volume was calculated from the calculation formula for ellipsoid volume of (major axis×[minor axis]^2×0.5).
The results are expressed as the mean value (Mean)±standard error (SEM). […] Using the actual measured values of the tumor volume at each measurement time point, an unpaired statistical test (Student's t-test) of the difference between two groups was carried out between a single administration group and a combination use group. […]

[2] = tested on: renal ischemia/reperfusion injury; conditions: reported in Non-Patent Documents 3 and 4; cited from earlier work

## O=C(/C=C/c1ccc(Cl)cc1)N[C@@H](Cc1ccccn1)C(=O)NCC(=O)N1CCC(Oc2cc(C(F)(F)F)ncn2)CC1 [FK330, N^2-[(2E)-3-(4-chlorophenyl)-2-propenoyl]-N-[2-oxo-2-(4-{[6-(trifluoromethyl)pyrimidin-4-yl]oxy}piperidin-1-yl)ethyl]-3-pyridin-2-yl-L-alaninamide]
[1]; Day 30, P<0.05
  tumor volume reduction ratio compared with the paclitaxel-only group: 63.1%
[1]; Day 55, P<0.001
  tumor volume reduction ratio compared with the paclitaxel-only group: 72.1%
[2]
  efficacy for monkey renal ischemia/reperfusion injury: effective
